For one data set, the target named is T1, PD PTH receptor (Mus musculus, UniProt P41593, S489A/S491A/S492A/S493A/S495A/S501A/S504A).
T1 construct: endogenous in cells; host or cells: knock-in mice (in vivo)
T1 sequence (P41593 27-591 S489A/S491A/S492A/S493A/S495A/S501A/S504A): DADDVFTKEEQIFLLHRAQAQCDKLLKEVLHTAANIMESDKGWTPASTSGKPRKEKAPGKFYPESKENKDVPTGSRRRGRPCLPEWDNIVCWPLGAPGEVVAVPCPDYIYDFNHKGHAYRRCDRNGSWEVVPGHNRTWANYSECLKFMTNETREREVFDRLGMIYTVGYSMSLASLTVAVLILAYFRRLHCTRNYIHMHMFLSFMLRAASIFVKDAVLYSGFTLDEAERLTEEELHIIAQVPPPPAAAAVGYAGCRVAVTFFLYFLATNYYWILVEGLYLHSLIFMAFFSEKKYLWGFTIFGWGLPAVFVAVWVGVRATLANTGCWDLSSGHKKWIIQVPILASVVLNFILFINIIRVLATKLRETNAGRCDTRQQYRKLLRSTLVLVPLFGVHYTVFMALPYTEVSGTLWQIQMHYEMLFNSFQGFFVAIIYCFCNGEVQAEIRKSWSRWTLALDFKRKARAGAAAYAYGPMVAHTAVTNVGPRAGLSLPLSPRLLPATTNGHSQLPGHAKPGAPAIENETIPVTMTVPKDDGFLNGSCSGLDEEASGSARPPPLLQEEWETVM
Kind of data set: Blood calcium and cAMP in knock-in mice with phosphorylation-deficient (PD) PTH receptor vs wild-type. The data set is classed as in vivo. The method, then: The activity of SP-PTH-AAK (SEQ ID NO:4) was tested in “knock-in” mice that express a PD PTH receptor in place of the wild-type PTH receptor (Bounoutas et al., Endocrinology 147: 4674, 2006).
Blood cAMP levels were also compared between the two types of mice.

Data set [1] deals with MC3T3-E1 cells. Briefly: cAMP RIA in intact MC3T3-E1 cells. It counts as cell-based, mouse. Conditions: 30 min, room temperature, IBMX. The method, then:
cAMP stimulating activity of these polypeptides was also assessed, using two different methods: a radioimmunoassay (RIA; FIG. 2) and a cAMP responsive element fused to a luciferase gene (FIG. 3). Briefly, the RIA cAMP assays were performed in intact MC3T3-E1 cells, a mouse pre-osteoblastic cell line, in 96-well plates, as described by Okazaki et al. (Proc Natl Acad Sci USA 105:16525-30, 2008). […] The cAMP contents of the HCl lysates were then determined by RIA. Data are means of six experiments, each performed in duplicate. Curves were fit to the data using Graph-Pad Prism 4.0.

A further data set deals with T2, rat PTHR1 (RG) (Rattus norvegicus, UniProt P25961).
T2 construct: expressed in transfected cells
T2 sequence (P25961 27-591): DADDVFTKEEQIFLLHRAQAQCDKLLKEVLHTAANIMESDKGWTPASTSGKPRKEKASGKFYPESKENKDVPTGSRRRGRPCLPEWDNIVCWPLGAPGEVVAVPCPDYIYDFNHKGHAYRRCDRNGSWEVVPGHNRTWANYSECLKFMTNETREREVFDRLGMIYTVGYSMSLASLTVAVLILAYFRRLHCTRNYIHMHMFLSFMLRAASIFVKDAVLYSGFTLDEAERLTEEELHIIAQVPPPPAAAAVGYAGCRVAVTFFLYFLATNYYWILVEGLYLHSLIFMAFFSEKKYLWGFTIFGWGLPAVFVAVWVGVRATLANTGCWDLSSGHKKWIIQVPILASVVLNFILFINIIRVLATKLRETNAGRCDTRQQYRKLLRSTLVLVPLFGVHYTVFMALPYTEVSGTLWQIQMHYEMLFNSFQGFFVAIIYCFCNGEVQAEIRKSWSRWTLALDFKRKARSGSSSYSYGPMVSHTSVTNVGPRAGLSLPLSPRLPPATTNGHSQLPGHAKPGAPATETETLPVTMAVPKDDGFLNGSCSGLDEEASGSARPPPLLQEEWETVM
Kind of data set: Competition binding, RG conformation of rat PTHR1. Particulars: RG conformation; mean of 4 experiments; read-out: Binding rat PTHR1 IC50 (Log M) RG (converted). From the text:
(§1) Briefly, the R^0 form of the receptor can be favored by addition of the non-hydrolyzable nucleotide analog GTPγS. The RG form can be favored, for example, by co-transfection of cells with a negative dominant Gαs subunit. […] Data are means of four experiments, each performed in duplicate. Curves were fit to the data using Graph-Pad Prism 4.0.

For another data set, the target named is T3, human PTHR1 (R0) (Homo sapiens, UniProt Q03431).
T3 construct: expressed in transfected cells; host or cells: COS-7 cells (membranes)
T3 sequence (Q03431 27-593): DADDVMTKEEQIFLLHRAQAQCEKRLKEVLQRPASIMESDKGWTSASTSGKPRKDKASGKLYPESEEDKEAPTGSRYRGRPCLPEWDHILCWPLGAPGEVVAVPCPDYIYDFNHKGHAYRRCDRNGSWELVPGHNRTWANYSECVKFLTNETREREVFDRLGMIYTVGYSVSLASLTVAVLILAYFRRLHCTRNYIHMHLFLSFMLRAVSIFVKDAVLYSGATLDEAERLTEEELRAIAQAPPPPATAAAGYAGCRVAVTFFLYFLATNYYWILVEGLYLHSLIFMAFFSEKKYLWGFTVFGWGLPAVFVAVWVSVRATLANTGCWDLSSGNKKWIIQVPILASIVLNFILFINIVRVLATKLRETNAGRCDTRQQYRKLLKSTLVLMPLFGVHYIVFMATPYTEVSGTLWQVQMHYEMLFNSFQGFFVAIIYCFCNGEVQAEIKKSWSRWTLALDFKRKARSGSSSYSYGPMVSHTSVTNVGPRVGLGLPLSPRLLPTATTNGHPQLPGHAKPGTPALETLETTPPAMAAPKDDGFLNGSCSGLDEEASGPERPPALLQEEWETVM
Briefly: Competition binding, R0 conformation of human PTHR1 (COS-7 membranes, 125I-PTH(1-34) tracer, GTPγS). The method, then: as §1
Here, competition binding assays for the R^0 and RG PTHR1 conformation were performed in membranes prepared from transfected COS-7 cells, as described by Dean et al., Mol Endocrinol 22:156-66, 2008. Data are means of three experiments, each performed in duplicate. Curves were fit to the data using Graph-Pad Prism 4.0.

For data set [2], the system named is MC3T3-E1 cells. Briefly: cAMP response following ligand wash-out in MC3T3-E1 cells. The data set is classed as cell-based, mouse. Particulars: 100 nM ligand 5 min, then wash-out; FIGS. 7A, 7B. The procedure: Cells were treated at room temperature with vehicle or the indicated ligand (100 nM) for five minutes; for each ligand duplicate wells were used to obtain the initial (maximum cAMP values); in these wells, cells were co-incubated with ligand and IBMX. After five minutes of initial treatment, the buffer was removed, and, for the initial wells, the reactions were terminated by addition of 50 mM HCl. In the other wells, the cells were rinsed three times with buffer, and incubated in buffer for varying times, as indicated on the abscissa; after which the buffer was replaced by a buffer containing IBMX, and the cells were incubated for another five minutes. After that, the buffer was removed and the reactions were terminated by addition of 50 mM HCl. The cAMP contents of the HCl lysates were then determined by RIA.

The nature of data set [3]: Blood Ca++ responses in mice. It counts as in vivo, mice (C57 BL/6). Particulars: 5 nmol/kg s.c., 4, 6, 8 and 24 hours. The method, then: Blood Ca^++ responses in mice were also assayed. Mice (C57 BL/6) were injected subcutaneously with either vehicle or the indicated ligand to give a final dose of 5 nmol/kg body weight, and blood was withdrawn via the tail at times after injection and assessed for Ca^++ concentration using a Bayer Rapid Lab model 348 blood analyzer. […] A similar experiment using 10 nmol/kg by intravenous injection was also conducted with similar results (FIGS. 8C and 8D).

For data set [4] the following is noted: rat, in vivo, iv, 24.3 nmol/kg.
A further data set can be described thus: in vivo. Particulars: Crl:CD(SD), rat, iv, 24.3 nmol/kg.

One may read the EC50 as the midpoint of the concentration-response curve. A low value points to higher potency in that assay. One may read the IC50 as the concentration that gives 50% inhibition. What is called MRT is a mean duration of stay, worked out from the concentration-time curve. One may read the Vd as the apparent volume that relates the amount in the body to the concentration in plasma or blood. Low readings indicate confinement near the circulation, high ones extensive tissue distribution. What is called clearance is a measure of how efficiently the substance is removed, as volume per time. The low end stands for inefficient removal, the high end for efficient removal. Usually half-life stands for the time in which the quantity being followed falls by half. A low value points to fast loss.

Square brackets hold non-standard residues; d marks the D form. Peptide text beside a SMILES is read from it. hArg = N=C(N)NCCCC[C@H](N)C(=O)O; Aib = CC(C)(N)C(=O)O

In the case of M-PTH(1-28), the “increases in blood calcium levels in PD mice as compared to wild-type mice” value at PD PTH receptor (FIGS. 17A, 17B) is listed as “either reduced or eliminated”. Further, at PD PTH receptor (FIGS. 18A, 18B), the “blood cAMP levels in PD mice as compared to wild-type mice” value was “increased in magnitude and prolonged in duration”.
Regarding `CC[C@H](C)[C@H](NC(=O)[C@H](CCC(=O)O)NC(=O)[C@H](C)NC(=O)[C@@H](NC(=O)[C@H](Cc1c[nH]cn1)NC(=O)[C@@H](NC(=O)[C@H](CCC(=O)O)NC(=O)[C@H](C)NC(=O)[C@@H](NC(=O)[C@H](CC(C)C)NC(=O)[C@H](Cc1c[nH]cn1)NC(=O)[C@H](Cc1c[nH]cn1)NC(=O)[C@H](CC(C)C)NC(=O)[C@H](Cc1ccccc1)NC(=O)[C@H](Cc1ccccc1)NC(=O)[C@H](CCCNC(=N)N)NC(=O)[C@H](CCCNC(=N)N)NC(=O)[C@H](CCCNC(=N)N)NC(=O)[C@H](CC(C)C)NC(=O)[C@H](CC(=O)O)NC(=O)[C@H](CCC(N)=O)NC(=O)[C@@H](NC(=O)[C@H](Cc1c[nH]c2ccccc12)NC(=O)[C@H](CCCCN)NC(=O)[C@H](C)NC(=O)[C@H](CCCCNC(=N)N)NC(=O)[C@H](CCC(N)=O)NC(=O)[C@H](Cc1c[nH]cn1)NC(=O)[C@H](CCSC)NC(=O)[C@H](CC(C)C)NC(=O)[C@H](CCC(N)=O)NC(=O)[C@@H](NC(=O)[C@H](CCC(=O)O)NC(=O)C(C)(C)NC(=O)[C@@H](NC(=O)[C@H](C)N)C(C)C)[C@@H](C)CC)[C@@H](C)CC)[C@@H](C)CC)[C@@H](C)CC)[C@@H](C)O)C(N)=O` [AIB-SP-PTH, [Ala^1,12,Aib^3,Gln^10,Har^11,Trp^14]PTH(1-14)/PTHrP(15-36)] (H-AV[Aib]EIQLMHQ[hArg]AKWIQDLRRRFFLHHLIAEIHTAEI-NH2; N-terminus assumed), in the data set on MC3T3-E1 cells [1], a half-maximal effect (EC50) was put at 44 pM and the “cAMP MC3T3-E1 cells Emax (pmole/well)” value was found to be 62.1 ± 13.3 pmole/well. The “cAMP MC3T3-E1 cells EC50 (Log M)” value in the data set with MC3T3-E1 cells [1] (6 experiments) is recorded as −10.4 ± 0.1 Log M. Also, the half-inhibitory concentration (IC50) on rat PTHR1 (RG) is 380 pM. At human PTHR1 (R0) (FIG. 5A), the “R0 binding at human PTH receptor as compared to PTH(1-34)” value is reported as “enhanced R^0 binding”. In addition, the IC50 on human PTHR1 (R0) (R0 conformation, mean of 3 experiments, read-out: Binding human PTHR1 IC50 (Log M) R0 (converted)) is 1820 pM. In addition, in the data set on MC3T3-E1 cells [2], the “cAMP-stimulating activity after ligand wash-out” value is reported as “maintained cAMP-stimulating activity for longer periods of time than PTH(1-34)”. Besides, in data set [3], the “blood calcium levels at later time points vs PTH(1-34) or vehicle” value is given as “increased”.
As for `CC[C@H](C)[C@H](NC(=O)[C@H](CCC(=O)O)NC(=O)[C@H](CO)NC(=O)[C@@H](NC(=O)[C@@H](N)CO)C(C)C)C(=O)N[C@@H](CCC(N)=O)C(=O)N[C@@H](CC(C)C)C(=O)N[C@@H](CCSC)C(=O)N[C@@H](Cc1cnc[nH]1)C(=O)N[C@@H](CC(N)=O)C(=O)N[C@@H](CC(C)C)C(=O)NCC(=O)N[C@@H](CCCCN)C(=O)N[C@@H](Cc1cnc[nH]1)C(=O)N[C@@H](CC(C)C)C(=O)N[C@@H](CC(N)=O)C(=O)N[C@@H](CO)C(=O)N[C@@H](CCSC)C(=O)N[C@@H](CCC(=O)O)C(=O)N[C@@H](CCCN=C(N)N)C(=O)N[C@H](C(=O)N[C@@H](CCC(=O)O)C(=O)N[C@@H](Cc1c[nH]c2ccccc12)C(=O)N[C@@H](CC(C)C)C(=O)N[C@@H](CCCN=C(N)N)C(=O)N[C@@H](CCCCN)C(=O)N[C@@H](CCCCN)C(=O)N[C@@H](CC(C)C)C(=O)N[C@@H](CCC(N)=O)C(=O)N[C@@H](CC(=O)O)C(=O)N[C@H](C(=O)N[C@@H](Cc1cnc[nH]1)C(=O)N[C@@H](CC(N)=O)C(=O)N[C@@H](Cc1ccccc1)C(=O)O)C(C)C)C(C)C` [PTH(1-34), hPTH(1-34)OH, reference compound], in data set [4], the AUCinf is 1315 pmol·min/mL and the AUClast was found to be 1308 pmol·min/mL. In the data set “in vivo”, this molecule showed an MRT of 11.4 min, a volume of distribution (Vd) of 0.211 L/kg, a clearance of 18.5 mL/min/kg and a half-life of 7.78 min.

(Values after patent US9492508B2, “Parathyroid hormone analogs and uses thereof” (The General Hospital Corporation, priority 2010, dated 2016).)
